# Reference: ChEMBL document CHEMBL1201862, “PubChem BioAssay data set” (2004)
#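 Growth conditions: 96-well plates. Treatment: test compound, 48 hours, 5 concentrations. Analysis: linear interpolation between bracketing concentrations; unreached endpoints set to highest concentration. GI50 = concentration required for 50% inhibition of growth.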 The source made the active and inactive calls. No stated cut-off is given here; in the data, active = GI50 up to about 1.1 µM and inactive = higher.
# How the values were obtained:
# Test in all cases: NCI anticancer screen, dose series, 48 h
# A549 = tested on: A549
# DU-145 = tested on: DU-145
# EKVX = tested on: EKVX
# HCT-116 = tested on: HCT-116
# HCT-15 = tested on: HCT-15
# HT-29 = tested on: HT-29
# MCF7 = tested on: MCF7
# MDA-MB-435 = tested on: MDA-MB-435
# MOLT-4 = tested on: MOLT-4
# NCI-H522 = tested on: NCI-H522
# OVCAR-3 = tested on: OVCAR-3
# OVCAR-5 = tested on: OVCAR-5
# PC-3 = tested on: PC-3
# SF-268 = tested on: SF-268
# SF-295 = tested on: SF-295
# SK-MEL-2 = tested on: SK-MEL-2
# T47D = tested on: T47D
# TK-10 = tested on: TK-10
# SF-539 = tested on: SF-539
Compound,GI50 (A549),GI50 (DU-145),GI50 (EKVX),GI50 (HCT-116),GI50 (HCT-15),GI50 (HT-29),GI50 (MCF7),GI50 (MDA-MB-435),GI50 (MOLT-4),GI50 (NCI-H522),GI50 (OVCAR-3),GI50 (OVCAR-5),GI50 (PC-3),GI50 (SF-268),GI50 (SF-295),GI50 (SK-MEL-2),GI50 (T47D),GI50 (TK-10),GI50 (SF-539)
NCCCN1CCN(c2ccccc2)CC1,> 100 µM (inactive),> 100 µM (inactive),> 100 µM (inactive),> 100 µM (inactive),> 100 µM,95.1 µM (inactive),> 100 µM (inactive),51.2 µM (inactive),79.3 µM (inactive),73.6 µM (inactive),10.7 µM (inactive),> 100 µM (inactive),33.4 µM (inactive),> 100 µM (inactive),10.2 µM (inactive),> 100 µM (inactive),> 100 µM (inactive),> 100 µM (inactive),
Clc1ccccc1NN(Cc1ccccn1)c1ccccc1Cl,16.7 µM (inactive),35.5 µM (inactive),23 µM (inactive),14 µM (inactive),24.9 µM,14.6 µM (inactive),36.1 µM (inactive),16.6 µM (inactive),17.3 µM (inactive),17.6 µM (inactive),18.1 µM (inactive),20.9 µM (inactive),29.2 µM (inactive),22.7 µM (inactive),30.1 µM (inactive),17.1 µM (inactive),27.4 µM (inactive),,18.7 µM (inactive)
O=C1CC(c2ccc(O)cc2)C2(O1)C(=O)OC(C(O)CO)C2O (stereo not given),,> 100 µM (inactive),> 100 µM (inactive),> 100 µM (inactive),> 100 µM,> 100 µM (inactive),> 100 µM (inactive),> 100 µM (inactive),> 100 µM (inactive),,> 100 µM (inactive),> 100 µM (inactive),> 100 µM (inactive),> 100 µM (inactive),> 100 µM (inactive),> 100 µM (inactive),> 100 µM (inactive),> 100 µM (inactive),> 100 µM (inactive)
CCOC(=O)/C(C(=O)Nc1ccc(F)cc1)=C(/N)N1CCOCC1,> 100 µM (inactive),> 100 µM (inactive),> 100 µM (inactive),> 100 µM (inactive),> 100 µM,> 100 µM (inactive),> 100 µM (inactive),> 100 µM (inactive),> 100 µM (inactive),> 100 µM (inactive),> 100 µM (inactive),> 100 µM (inactive),> 100 µM (inactive),> 100 µM (inactive),> 100 µM (inactive),> 100 µM (inactive),> 100 µM (inactive),> 100 µM (inactive),
COC(=O)[C@]12CCC(C)(C)C[C@H]1C1=CC[C@@H]3[C@@]4(C)CC[C@H](OC5OC(CO)C(O)C(O)C5OC5OC(CO)C(O)C(O)C5O)C(C)(C)[C@@H]4CC[C@@]3(C)[C@]1(C)CC2 (stereo not given in full),8.83 µM (inactive),12 µM (inactive),11.9 µM (inactive),5.41 µM (inactive),12.5 µM,10.4 µM (inactive),12 µM (inactive),7.6 µM (inactive),17.5 µM (inactive),3.1 µM (inactive),10.6 µM (inactive),16.6 µM (inactive),3.89 µM (inactive),13.7 µM (inactive),14.2 µM (inactive),10.7 µM (inactive),18.3 µM (inactive),,
Cc1n[nH]c(=O)n1/N=C/c1c[nH]c2ccccc12,> 100 µM (inactive),> 100 µM (inactive),50.7 µM (inactive),> 100 µM (inactive),> 100 µM,,> 100 µM (inactive),> 100 µM (inactive),> 100 µM (inactive),> 100 µM (inactive),> 100 µM (inactive),83.4 µM (inactive),> 100 µM (inactive),> 100 µM (inactive),> 100 µM (inactive),> 100 µM (inactive),> 100 µM (inactive),,> 100 µM (inactive)
CC(C)NC(=O)OCc1c(COC(=O)NC(C)C)n(C)c2c1ccc1ccsc12,9.98 µM (inactive),4.76 µM (inactive),17.5 µM (inactive),9.84 µM (inactive),9.25 µM,12.1 µM (inactive),5.16 µM (inactive),7.35 µM (inactive),1.71 µM (inactive),5.09 µM (inactive),13.9 µM (inactive),17 µM (inactive),15.3 µM (inactive),4.38 µM (inactive),7.62 µM (inactive),12.7 µM (inactive),15.5 µM (inactive),22.2 µM (inactive),
Cc1ccc2c(c1)CC1(Cc3ccccc3C1=O)C2=O (stereo not given),> 100 µM (inactive),> 100 µM (inactive),> 100 µM (inactive),> 100 µM (inactive),> 100 µM,> 100 µM (inactive),> 100 µM (inactive),> 100 µM (inactive),> 100 µM (inactive),> 100 µM (inactive),> 100 µM (inactive),55.6 µM (inactive),> 100 µM (inactive),> 100 µM (inactive),> 100 µM (inactive),,> 100 µM (inactive),> 100 µM (inactive),> 100 µM (inactive)
COC(=O)CCCc1ccc2c(c1)CCC2,> 100 µM (inactive),> 100 µM (inactive),,> 100 µM (inactive),> 100 µM,,> 100 µM (inactive),> 100 µM (inactive),> 100 µM (inactive),92.3 µM (inactive),> 100 µM (inactive),> 100 µM (inactive),> 100 µM (inactive),> 100 µM (inactive),> 100 µM (inactive),> 100 µM (inactive),> 100 µM (inactive),> 100 µM (inactive),> 100 µM (inactive)
COc1ccc2c(c1)CC[C@@H]1[C@@H]2CC[C@]2(C)C(=O)/C(=C/c3ccc(C#N)cc3)C[C@@H]12,> 100 µM (inactive),> 100 µM (inactive),> 100 µM (inactive),> 100 µM (inactive),> 100 µM,,> 100 µM (inactive),> 100 µM (inactive),> 100 µM (inactive),> 100 µM (inactive),,> 100 µM (inactive),> 100 µM (inactive),> 100 µM (inactive),81.3 µM (inactive),> 100 µM (inactive),> 100 µM (inactive),> 100 µM (inactive),> 100 µM (inactive)
COc1ccc2sc(-n3nc4ccccc4c3Nc3nc4ccc(OC)cc4s3)nc2c1,3.77 µM (inactive),2.98 µM (inactive),3.52 µM (inactive),1.8 µM (inactive),10.5 µM,3.59 µM (inactive),6.47 µM (inactive),3.24 µM (inactive),,2.52 µM (inactive),1.79 µM (inactive),2.88 µM (inactive),2.89 µM (inactive),5.01 µM (inactive),3.29 µM (inactive),15 µM (inactive),1 µM (active),2.62 µM (inactive),0.92 µM (active)
OC(C/C=N/Nc1ccccc1)(C(F)(F)Cl)C(F)(F)Cl,> 10 µM (inactive),> 10 µM (inactive),> 10 µM (inactive),5.15 µM (inactive),5.2 µM,> 10 µM (inactive),> 10 µM (inactive),7.35 µM (inactive),,4.05 µM (inactive),4.84 µM (inactive),,4.05 µM (inactive),> 10 µM (inactive),> 10 µM (inactive),> 10 µM (inactive),7.53 µM (inactive),> 10 µM (inactive),> 10 µM (inactive)
